Tested on: NL-RLuc virus
Assay: Inhibition of HIV replication (NL-RLuc luciferase reporter virus in MT-2 cells)
Type: cell-based
Settings: Human immunodeficiency virus 1, MT2, 120 h, read-out: Activity
From the text: Inhibition of HIV Replication:
A recombinant NL-RLuc proviral clone was constructed in which a section of the nef gene from NL4-3 was replaced with the Renilla Luciferase gene. This virus is fully infectious and can undergo multiple cycles of replication in cell culture. In addition, the luciferous reporter provides a simple and easy method for quantitating the extent of virus growth and consequently, the antiviral activity of test compounds. The plasmid pNLRLuc contains the proviral NL-Rluc DNA cloned into pUC 18 at the PvuII site. The NL-RLuc virus was prepared by transfection of 293T cells with the plasmid pNLRLuc. Transfections were performed using the LipofectAMINE PLUS kit from Invitrogen (Carlsbad, Calif.) according to the manufacturer and the virus generated was titered in MT-2 cells. For susceptibility analyses, the titrated virus was used to infect MT-2 cells in the presence of compound, and after 5 days of incubation, cells were processed and quantitated for virus growth by the amount of expressed luciferase. Assay media was RPMI 1640 supplemented with 10% heat inactivated fetal bovine serum (FBS), 100 units/ml penicillin G/100 units/ml streptomycin, 10 mM HEPES buffer pH 7.55 and 2 mM L-glutamine. The results from at least 2 experiments were used to calculate the EC50 values. Luciferase was quantitated using the Dual Luciferase kit from Promega (Madison, Wis.). Susceptibility of viruses to compounds was determined by incubation in the presence of serial dilutions of the compound. The 50% effective concentration (EC50) was calculated by using the exponential form of the median effect equation where (Fa)=1/[1+(ED50/drug conc.)^m](Johnson V A, Byington R T. Infectivity Assay. In Techniques in HIV Research. ed. Aldovini A, Walker B D. 71-76. New York: Stockton Press.1990). Activity equal to A refers to a compound having an EC50≤100 nM, while B and C denote compounds having an EC50 between 100 nM and 1 uM (B) or >1 uM (C).

SMILES | EC50
Cc1nc(C)c([C@H](OC(C)(C)C)C(=O)O)c(N2CCC3(CCCC3)CC2)c1-c1ccc(C(=O)NCc2ccccc2)cc1 [Example 21, (S)-2-(5-(4-(Benzylcarbamoyl)phenyl)-2,6-dimethyl-4-(8-azaspiro[4.5]decan-8-yl)pyridin-3-yl)-2-(tert-butoxy)acetic acid] | < 0.1 µM
Cc1nc(C)c([C@H](OC(C)(C)C)C(=O)O)c(N2CCC3(CCCC3)CC2)c1-c1ccc(OCC(C)(C)c2ccc(F)cc2)cc1 [Example 22, (S)-2-(tert-Butoxy)-2-(5-(4-(2-(4-fluorophenyl)-2-methylpropoxy)phenyl)-2,6-dimethyl-4-(8-azaspiro[4.5]decan-8-yl)pyridin-3-yl)acetic acid] | < 0.1 µM
Cc1nc(C)c([C@H](OC(C)(C)C)C(=O)O)c(N2CCC3(CCCC3)CC2)c1-c1ccc(C(=O)NCc2ccccc2)c(F)c1 [Example 24, (S)-2-(5-(4-(Benzylcarbamoyl)-3-fluorophenyl)-2,6-dimethyl-4-(8-azaspiro[4.5]decan-8-yl)pyridin-3-yl)-2-(tert-butoxy)acetic acid] | < 0.1 µM
COc1cc(-c2c(C)nc(C)c([C@H](OC(C)(C)C)C(=O)O)c2N2CCC3(CCCC3)CC2)ccc1C(=O)NCc1ccccc1 [Example 25, (S)-2-(5-(4-(Benzylcarbamoyl)-3-methoxyphenyl)-2,6-dimethyl-4-(8-azaspiro[4.5]decan-8-yl)pyridin-3-yl)-2-(tert-butoxy)acetic acid] | < 0.1 µM
Cc1nc(C)c([C@H](OC(C)(C)C)C(=O)O)c(N2CCC3(CCCC3)CC2)c1-c1ccc2c(c1)CCN(Cc1ccccc1F)C2 [Example 26, (S)-2-(tert-Butoxy)-2-(5-(2-(2-fluorobenzyl)-1,2,3,4-tetrahydroisoquinolin-6-yl)-2,6-dimethyl-4-(8-azaspiro[4.5]decan-8-yl)pyridin-3-yl)acetic acid] | < 0.1 µM
Cc1nc(C)c([C@H](OC(C)(C)C)C(=O)O)c(N2CCC3(CCC3)CC2)c1-c1ccc(OCCc2ccc(F)cc2)cc1 [Example 27, (S)-2-(tert-Butoxy)-2-(5-(4-(4-fluorophenethoxy)phenyl)-2,6-dimethyl-4-(7-azaspiro[3.5]nonan-7-yl)pyridin-3-yl)acetic acid] | < 0.1 µM
Cc1nc(C)c([C@H](OC(C)(C)C)C(=O)O)c(N2CCC3(CCC3)CC2)c1-c1ccc(OCC(C)(C)c2ccc(F)cc2)cc1 [Example 28, (S)-2-(tert-butoxy)-2-(5-(4-(2-(4-fluorophenyl)-2-methylpropoxy)phenyl)-2,6-dimethyl-4-(7-azaspiro[3.5]nonan-7-yl)pyridin-3-yl)acetic acid] | < 0.1 µM
Cc1nc(C)c([C@H](OC(C)(C)C)C(=O)O)c(N2CCC3(CCC3)CC2)c1-c1ccc(C(=O)NCc2ccccc2)cc1 [Example 29, (S)-2-(5-(4-(Benzylcarbamoyl)phenyl)-2,6-dimethyl-4-(7-azaspiro[3.5]nonan-7-yl)pyridin-3-yl)-2-(tert-butoxy)acetic acid] | < 0.1 µM
Cc1nc(C)c([C@H](OC(C)(C)C)C(=O)O)c(N2CCC3(CCC3)CC2)c1-c1ccc(C(=O)NCc2ccccc2)c(F)c1 [Example 31, (S)-2-(5-(4-(Benzylcarbamoyl)-3-fluorophenyl)-2,6-dimethyl-4-(7-azaspiro[3.5]nonan-7-yl)pyridin-3-yl)-2-(tert-butoxy)acetic acid] | < 0.1 µM
COc1cc(-c2c(C)nc(C)c([C@H](OC(C)(C)C)C(=O)O)c2N2CCC3(CCC3)CC2)ccc1C(=O)NCc1ccccc1 [Example 32, (S)-2-(5-(4-(Benzylcarbamoyl)-3-methoxyphenyl)-2,6-dimethyl-4-(7-azaspiro[3.5]nonan-7-yl)pyridin-3-yl)-2-(tert-butoxy)acetic acid] | < 0.1 µM
Cc1nc(C)c([C@H](OC(C)(C)C)C(=O)O)c(N2CCC3(CCC3)CC2)c1-c1ccc2c(c1)CCN(Cc1ccccc1F)C2 [Example 33, (S)-2-(tert-Butoxy)-2-(5-(2-(2-fluorobenzyl)-1,2,3,4-tetrahydroisoquinolin-6-yl)-2,6-dimethyl-4-(7-azaspiro[3.5]nonan-7-yl)pyridin-3-yl)acetic acid] | < 0.1 µM
Cc1cccc(F)c1CN1CCc2cc(-c3c(C)nc(C)c([C@H](OC(C)(C)C)C(=O)O)c3N3CCC4(CCC4)CC3)ccc2C1 [Example 34, (S)-2-(tert-Butoxy)-2-(5-(2-(2-fluoro-6-methylbenzyl)-1,2,3,4-tetrahydroisoquinolin-6-yl)-2,6-dimethyl-4-(7-azaspiro[3.5]nonan-7-yl)pyridin-3-yl)acetic acid] | < 0.1 µM
Cc1cc(F)ccc1CN1CCc2cc(-c3c(C)nc(C)c([C@H](OC(C)(C)C)C(=O)O)c3N3CCC4(CCC4)CC3)ccc2C1 [Example 35, (S)-2-(tert-Butoxy)-2-(5-(2-(4-fluoro-2-methylbenzyl)-1,2,3,4-tetrahydroisoquinolin-6-yl)-2,6-dimethyl-4-(7-azaspiro[3.5]nonan-7-yl)pyridin-3-yl)acetic acid] | < 0.1 µM
Cc1ccc(CN2CCc3cc(-c4c(C)nc(C)c([C@H](OC(C)(C)C)C(=O)O)c4N4CCC5(CCC5)CC4)ccc3C2)c(F)c1 [Example 37, (S)-2-(tert-Butoxy)-2-(5-(2-(2-fluoro-4-methylbenzyl)-1,2,3,4-tetrahydroisoquinolin-6-yl)-2,6-dimethyl-4-(7-azaspiro[3.5]nonan-7-yl)pyridin-3-yl)acetic acid] | < 0.1 µM
Cc1nc(CO)c(-c2ccc(OCCc3ccc(F)cc3)cc2)c(N2CCC3(CCC3)CC2)c1[C@H](OC(C)(C)C)C(=O)O [Example 38, (S)-2-(tert-Butoxy)-2-(5-(4-(4-fluorophenethoxy)phenyl)-6-(hydroxymethyl)-2-methyl-4-(7-azaspiro[3.5]nonan-7-yl)pyridin-3-yl)acetic acid] | < 0.1 µM
Cc1nc(CO)c([C@H](OC(C)(C)C)C(=O)O)c(N2CCC3(CCC3)CC2)c1-c1ccc(OCCc2ccc(F)cc2)cc1 [Example 39, (S)-2-(tert-Butoxy)-2-(5-(4-(4-fluorophenethoxy)phenyl)-2-(hydroxymethyl)-6-methyl-4-(7-azaspiro[3.5]nonan-7-yl)pyridin-3-yl)acetic acid] | < 0.1 µM
Cc1nc(CF)c(-c2ccc(OCCc3ccc(F)cc3)cc2)c(N2CCC3(CCC3)CC2)c1[C@H](OC(C)(C)C)C(=O)O [Example 40, (S)-2-(tert-Butoxy)-2-(6-(fluoromethyl)-5-(4-(4-fluorophenethoxy)phenyl)-2-methyl-4-(7-azaspiro[3.5]nonan-7-yl)pyridin-3-yl)acetic acid] | < 0.1 µM
CCOCc1nc(C)c([C@H](OC(C)(C)C)C(=O)O)c(N2CCC3(CCC3)CC2)c1-c1ccc(OCCc2ccc(F)cc2)cc1 [Example 41, (S)-2-(tert-Butoxy)-2-(6-(ethoxymethyl)-5-(4-(4-fluorophenethoxy)phenyl)-2-methyl-4-(7-azaspiro[3.5]nonan-7-yl)pyridin-3-yl)acetic acid] | < 0.1 µM
COCCNCc1nc(C)c([C@H](OC(C)(C)C)C(=O)O)c(N2CCC3(CCC3)CC2)c1-c1ccc(OCCc2ccc(F)cc2)cc1 [Example 42, (S)-2-(tert-Butoxy)-2-(5-(4-(4-fluorophenethoxy)phenyl)-6-(((2-methoxyethyl)amino)methyl)-2-methyl-4-(7-azaspiro[3.5]nonan-7-yl)pyridin-3-yl)acetic acid] | < 0.1 µM
COCCN(C)Cc1nc(C)c([C@H](OC(C)(C)C)C(=O)O)c(N2CCC3(CCC3)CC2)c1-c1ccc(OCCc2ccc(F)cc2)cc1 [Example 43, (S)-2-(tert-Butoxy)-2-(5-(4-(4-fluorophenethoxy)phenyl)-6-(((2-methoxyethyl)(methyl)amino)methyl)-2-methyl-4-(7-azaspiro[3.5]nonan-7-yl)pyridin-3-yl)acetic acid] | < 0.1 µM
Cc1nc(CN2CCCC2)c(-c2ccc(OCCc3ccc(F)cc3)cc2)c(N2CCC3(CCC3)CC2)c1[C@H](OC(C)(C)C)C(=O)O [Example 44, (S)-2-(tert-Butoxy)-2-(5-(4-(4-fluorophenethoxy)phenyl)-2-methyl-6-(pyrrolidin-1-ylmethyl)-4-(7-azaspiro[3.5]nonan-7-yl)pyridin-3-yl)acetic acid] | < 0.1 µM
Cc1nc(CNCC2CCOCC2)c(-c2ccc(OCCc3ccc(F)cc3)cc2)c(N2CCC3(CCC3)CC2)c1[C@H](OC(C)(C)C)C(=O)O [Example 45, (S)-2-(tert-Butoxy)-2-(5-(4-(4-fluorophenethoxy)phenyl)-2-methyl-4-(7-azaspiro[3.5]nonan-7-yl)-6-((((tetrahydro-2H-pyran-4-yl)methyl)amino)methyl)pyridin-3-yl)acetic acid] | < 0.1 µM
Cc1nc(CN(C)CC2CCOCC2)c(-c2ccc(OCCc3ccc(F)cc3)cc2)c(N2CCC3(CCC3)CC2)c1[C@H](OC(C)(C)C)C(=O)O [Example 46, (S)-2-(tert-Butoxy)-2-(5-(4-(4-fluorophenethoxy)phenyl)-2-methyl-6-((methyl((tetrahydro-2H-pyran-4-yl)methyl)amino)methyl)-4-(7-azaspiro[3.5]nonan-7-yl)pyridin-3-yl)acetic acid] | < 0.1 µM

Same assay, conditions: Human immunodeficiency virus 1, MT2, 120 h, read-out: EC50 μM

SMILES | EC50
Cc1nc(C)c([C@H](OC(C)(C)C)C(=O)O)c(N2CCC3(CCCC3)CC2)c1-c1ccc(OCC(C)(C)c2ccc(F)cc2)cc1 [Example 22, (S)-2-(tert-Butoxy)-2-(5-(4-(2-(4-fluorophenyl)-2-methylpropoxy)phenyl)-2,6-dimethyl-4-(8-azaspiro[4.5]decan-8-yl)pyridin-3-yl)acetic acid] | 0.026 µM
Cc1nc(C)c([C@H](OC(C)(C)C)C(=O)O)c(N2CCC3(CCC3)CC2)c1-c1ccc(C(=O)NCc2ccccc2)cc1 [Example 29, (S)-2-(5-(4-(Benzylcarbamoyl)phenyl)-2,6-dimethyl-4-(7-azaspiro[3.5]nonan-7-yl)pyridin-3-yl)-2-(tert-butoxy)acetic acid] | 0.007 µM
Cc1cc(F)ccc1CN1CCc2cc(-c3c(C)nc(C)c([C@H](OC(C)(C)C)C(=O)O)c3N3CCC4(CCC4)CC3)ccc2C1 [Example 35, (S)-2-(tert-Butoxy)-2-(5-(2-(4-fluoro-2-methylbenzyl)-1,2,3,4-tetrahydroisoquinolin-6-yl)-2,6-dimethyl-4-(7-azaspiro[3.5]nonan-7-yl)pyridin-3-yl)acetic acid] | 0.006 µM
COCCNCc1nc(C)c([C@H](OC(C)(C)C)C(=O)O)c(N2CCC3(CCC3)CC2)c1-c1ccc(OCCc2ccc(F)cc2)cc1 [Example 42, (S)-2-(tert-Butoxy)-2-(5-(4-(4-fluorophenethoxy)phenyl)-6-(((2-methoxyethyl)amino)methyl)-2-methyl-4-(7-azaspiro[3.5]nonan-7-yl)pyridin-3-yl)acetic acid] | 0.002 µM

— patent US20190010139A1 (priority 2015, published 2019)
